{"source": "patent US9636329B2", "about": "“Methods of treating cancer with glut inhibitors and oxidative phosphorylation inhibitors” (Northwestern University, priority 2012, dated 2017)", "key": {"[1]": {"system": "JJN3 cells", "conditions": "JJN3 cultured in the absence of glucose; metformin 5 mM; 72 hrs", "text": "(§1) To investigate whether mitochondrial oxidative phosphorylation can render MM cells resistant to glucose-deprivation we treated cells with metformin. which is a known mitochondrial complex 1 inhibitor [25-27])."}, "[2]": {"system": "L363 cells", "test": "Viability of MM cell lines by Annexin/DAPI staining (FIG. 2)", "format": "cell-based", "conditions": "glucose-deprived L363 cells + galactose 10 mM; metformin 5 mM; 72 hrs", "text": "as §1"}, "[3]": {"system": "MM cells", "test": "Viability of MM cells, glucose deprivation / ritonavir / metformin", "format": "cell-based", "conditions": "absence of glucose; metformin 5 mM; 72 hrs", "text": "as §1"}, "[4]": {"system": "normal PBMC", "test": "Cell death by DAPI staining with doxorubicin at 11 mM or 0.5 mM glucose (FIG. 1D)", "format": "cell-based", "conditions": "48 hours", "description": "(§2) FIG. 1. Glucose metabolism sustains myeloma cell proliferation, viability and promotes chemoresistance: (A) Primary myeloma cells, normal B lymphocytes (NBL) and four MM cell lines were cultured in medium containing 0 or 5 mM glucose for 48 (NBL, MM cell lines) or 72 (MM Patient) hours. Cell viability was determined by flow cytometric analysis of AnnexinV/DAPI staining and normalized to 5 mM samples. Data are means±SEM (n=2 for MM cell lines and NBL. n=1 for MM Patient sample). (B) MM cell lines were cultured in various glucose concentrations for 72 hours. Viable cell quantities were determined by MTS assay (represented by absorbance at 490 nm) and normalized to 5 mM samples. U266 cells (C) and normal PBMC (D) were cultured in 11 mM or 0.5 mM glucose-containing medium for 48 hours in the presence of the indicated concentrations of doxorubicin. Cell death was determined by OAPI staining. […] Glucose consumption rates and lactate production rates were determined and normalized to control shRNA-expressing cells. (G-I) Cells from part (E) were analyzed for viability and proliferation. (J) JJN3 cells transduced with control or GLUT1-targeted shRNA and analyzed for viability and proliferation. Viable cell densities are expressed as fold change relative to the day 0 reading of control shRNA-expressing cells. Cells from parts G-J were evaluated for viability via trypan blue exclusion. […]"}, "[5]": {"system": "U266 cells", "test": "Cell death by DAPI staining with doxorubicin at 11 mM or 0.5 mM glucose (FIG. 1C)", "format": "cell-based", "conditions": "resistant U266 cells; glucose-free culture (0.5 mM vs 11 mM glucose); 48 hours", "description": "as §2"}, "[6]": {"system": "MM", "test": "Ritonavir anti-myeloma effects in myeloma cell lines and patient samples", "format": "cell-based"}, "[7]": {"molecular_target": "T1, GLUT4 (Homo sapiens, UniProt P14672)", "T1 sequence (P14672 1-509)": "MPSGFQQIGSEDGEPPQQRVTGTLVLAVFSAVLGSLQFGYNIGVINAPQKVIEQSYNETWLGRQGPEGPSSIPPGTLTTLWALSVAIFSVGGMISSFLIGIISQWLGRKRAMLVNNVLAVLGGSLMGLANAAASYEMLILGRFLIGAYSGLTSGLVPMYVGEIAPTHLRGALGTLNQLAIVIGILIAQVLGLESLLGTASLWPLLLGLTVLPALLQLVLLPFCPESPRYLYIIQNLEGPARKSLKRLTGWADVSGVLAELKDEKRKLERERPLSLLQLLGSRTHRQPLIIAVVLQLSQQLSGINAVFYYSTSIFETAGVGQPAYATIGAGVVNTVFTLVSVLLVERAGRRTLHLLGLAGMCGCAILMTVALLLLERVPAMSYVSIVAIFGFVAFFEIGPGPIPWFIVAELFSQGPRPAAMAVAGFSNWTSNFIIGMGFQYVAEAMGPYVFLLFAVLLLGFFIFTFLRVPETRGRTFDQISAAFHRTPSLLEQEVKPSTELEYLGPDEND", "conditions": "cited from earlier work"}, "[8]": {"molecular_target": "T2, GLUT1 (Homo sapiens, UniProt P11166)", "T2 sequence (P11166 1-492)": "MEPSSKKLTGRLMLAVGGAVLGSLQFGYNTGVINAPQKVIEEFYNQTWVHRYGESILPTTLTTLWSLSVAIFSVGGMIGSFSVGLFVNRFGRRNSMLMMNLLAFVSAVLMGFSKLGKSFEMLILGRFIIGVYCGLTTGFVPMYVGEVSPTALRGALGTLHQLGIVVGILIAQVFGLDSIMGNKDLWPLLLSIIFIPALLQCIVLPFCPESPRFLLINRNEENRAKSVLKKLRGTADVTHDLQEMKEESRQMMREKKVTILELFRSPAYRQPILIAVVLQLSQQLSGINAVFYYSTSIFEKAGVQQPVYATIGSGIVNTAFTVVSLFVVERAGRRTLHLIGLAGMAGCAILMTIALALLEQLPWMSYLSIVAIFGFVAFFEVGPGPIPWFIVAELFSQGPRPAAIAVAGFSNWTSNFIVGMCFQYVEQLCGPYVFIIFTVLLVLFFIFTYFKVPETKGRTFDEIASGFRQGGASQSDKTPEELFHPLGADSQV", "conditions": "cited from earlier work"}, "[9]": {"system": "JJN3 cells", "test": "Oxygen consumption rate (OCR), SeaHorse XF24 bioanalyzer", "format": "cell-based", "conditions": "resistant JJN3 cells; ritonavir alone", "description": "(§3) FIG. 3. […] Cellular viability was assessed before OCR measurements and 400,000 viable cells were plated in 5 replicates. Result is representative of an n=3."}, "[10]": {"system": "L363 cells", "test": "Oxygen consumption rate (OCR), SeaHorse XF24 bioanalyzer", "format": "cell-based", "conditions": "sensitive L363 cells; ritonavir 20 uM; 17 hrs", "description": "as §3"}, "[11]": {"conditions": "achieved in humans; read-out: Cmax plasma concentration; cited from earlier work"}, "[12]": {"system": "NCI-60 cell lines", "test": "NCI-60 panel viability, 48 hr MTS assay (FIG. 5)", "format": "cell-based", "conditions": "read-out: median reduction of viability", "text": "FIG. 5. […] 48 hr MTS assay, n=3+/−SEM, p<0.05\nGLUT4 activity may be prevalent across multiple cancers. To examine the dependency of other cancers on GLUT4 activity, we utilized the NCI-60 cancer cell line panel. […] The NCI-60 lines are representative of genetic heterogeneity within each cancer group. Therefore, it is possible that we may detect a role for GLUT4 in a subset of cancers within each group connected to a specific genotype."}}}
{"smiles": "CN(C)C(=N)N=C(N)N", "note": "[metformin]", "values": [{"measurement": "sensitization of glucose deprived cells to metformin (viability)", "setting": "[1]", "value": "sensitized to metformin"}, {"measurement": "reversal of galactose rescue of viability", "setting": "[2]", "value": "reverses the metabolic rescue provided by galactose"}, {"measurement": "sensitization of glucose deprived MM cells to metformin (viability)", "setting": "[3]", "value": "sensitized to metformin"}]}
{"smiles": "COc1cccc2c1C(=O)c1c(O)c3c(c(O)c1C2=O)C[C@@](O)(C(=O)CO)C[C@@H]3O[C@H]1C[C@H](N)[C@H](O)[C@H](C)O1", "note": "[doxorubicin]", "values": [{"measurement": "impact of doxorubicin on normal PBMC (cell death)", "setting": "[4]", "value": "not impacted"}, {"measurement": "sensitivity to doxorubicin (cell death)", "setting": "[5]", "value": "sensitizes"}]}
{"smiles": "CC(C)c1nc(CN(C)C(=O)N[C@H](C(=O)N[C@@H](Cc2ccccc2)C[C@H](O)[C@H](Cc2ccccc2)NC(=O)OCc2cncs2)C(C)C)cs1", "note": "[ritonavir]", "values": [{"measurement": "chemosensitization of resistant MM to doxorubicin", "setting": "[6]", "value": "chemosensitizing"}, {"measurement": "glucose inhibitory and growth inhibitory effects in MM", "setting": "[6]; physiologically achievable doses of ritonavir", "value": "significant glucose inhibitory and growth inhibitory effects"}, {"measurement": "inhibition of cytoplasmic glucose binding site", "setting": "[7]", "value": "competitively inhibit"}, {"measurement": "inhibition of cytoplasmic glucose binding site", "setting": "[8]", "value": "competitively inhibit"}, {"measurement": "oxygen consumption rate (OCR)", "setting": "[9]", "value": "increase in oxygen consumption rate"}, {"measurement": "oxygen consumption rate (OCR)", "setting": "[10]", "value": "significant reduction in OCR"}, {"measurement": "Cmax", "setting": "[11]", "value": 16, "unit": "µM"}, {"measurement": "cytotoxicity at 20 µM", "setting": "[12]", "value": "≥ 50", "unit": "%"}]}
